# Measurements from US20140194500A1 (Kookmin University Industry Academic Cooperation Foundation, priority 2013, published 2014).
# Read-outs that look alike come from different tables or passages of the source.
# Experiments:
# [1] = molecular target: T1, SARS coronavirus helicase nsP13 (Severe acute respiratory syndrome coronavirus, UniProt P0C6X7); experiment: biochemical; conditions: for inhibition at 10 µM: read-out: inhibition of the ATPase activity of nsP13
# [2] = tested on: MCF10A cells; experiment: Cytotoxicity: growth of normal breast epithelial MCF10A cells; conditions: 2 μM, counted every 24h for 3 days
# [3] = tested on: MCF10A cells; conditions: human
# [4] = molecular target: HCV viral helicase, NS3h (Hepatitis C virus genotype 1a, UniProt P27958); format: biochemical
# Sequence of HCV viral helicase, NS3h (P27958 1193-1657): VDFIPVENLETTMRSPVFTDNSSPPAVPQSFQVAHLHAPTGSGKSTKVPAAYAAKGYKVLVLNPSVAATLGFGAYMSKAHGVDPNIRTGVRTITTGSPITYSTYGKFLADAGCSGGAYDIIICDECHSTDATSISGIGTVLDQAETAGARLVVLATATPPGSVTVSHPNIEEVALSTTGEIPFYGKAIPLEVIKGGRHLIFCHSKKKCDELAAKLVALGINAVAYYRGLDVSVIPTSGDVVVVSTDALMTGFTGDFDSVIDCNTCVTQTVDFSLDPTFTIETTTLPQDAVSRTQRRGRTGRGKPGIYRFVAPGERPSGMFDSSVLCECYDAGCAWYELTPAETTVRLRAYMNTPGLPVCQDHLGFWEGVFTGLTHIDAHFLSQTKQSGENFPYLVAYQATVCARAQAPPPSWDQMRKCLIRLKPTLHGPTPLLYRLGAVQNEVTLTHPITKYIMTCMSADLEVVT
# [5] = molecular target: HCV NS3h (Hepatitis C virus genotype 1a, UniProt P27958); format: biochemical
# Sequence of HCV NS3h (P27958 1193-1657): as above
# [6] = molecular target: T1, SARS coronavirus helicase nsP13; format: biochemical
compound,measurement,setting,value
Diosmetin-7-O-Glc-Xyl [No. 35],inhibition of the ATPase activity of nsP13,[1]; 10 µM,around 20%
"O=c1cc(-c2ccc(O)cc2)oc2cc(O)c(O)c(O)c12 [No. 8, scutellarein]",effect on the growth of MCF10A cells (viable cell number),[2],did not affect the growth of MCF10A cells
same,IC50,[1],860 ± 480 nM
same,inhibition at 10 µM,[1],> 90%
"CC1(C)CC[C@]2(C)CC=C3[C@]4(C)CC[C@H]5C(C)(C)[C@@H](O)CC[C@]5(C)[C@H]4CC[C@@]3(C)[C@@H]2C1 [No. 58, taraxerol]",inhibition at 10 µM,[1],~20%
"O=c1cc(-c2ccc(O)c(-c3c(O)cc(O)c4c(=O)cc(-c5ccc(O)cc5)oc34)c2)oc2cc(O)cc(O)c12 [No. 18, amentoflavone]",inhibition at 10 µM,[1],~20%
"O=c1c(O)c(-c2cc(O)c(O)c(O)c2)oc2cc(O)cc(O)c12 [No. 6, myricetin]",effect on the growth of MCF10A cells (viable cell number),[3],did not affect the growth of MCF10A cells
same,inhibition of the DNA unwinding activity of HCV viral helicase,[4],did not suppress the helicase activity of HCV virus
same,suppression of the ATPase activity of the HCV viral helicase,[5],did not seem to suppress the ATPase activity of HCV helicase protein
same,"inhibition of the dsDNA-unwinding activity of SARS helicase, nsP13",[6],not inhibition of helicase activity
